# PMC5693111, “Small molecule Photoregulin3 prevents retinal degeneration in the Rho^P23H mouse model of retinitis pigmentosa” (eLife, 2017)
# Molecular target: T1, NR2E3 (Homo sapiens, UniProt Q9Y5X4)
# T1 construct: aa 90–410 (expressed as His8-MBP-TEV fusion, tag removed)
# Test: isothermal titration calorimetry ([…] PR3 injected into […] NR2E3; one site model, qualitative)
# Assay type: binding
# T1 sequence (Q9Y5X4 90-410): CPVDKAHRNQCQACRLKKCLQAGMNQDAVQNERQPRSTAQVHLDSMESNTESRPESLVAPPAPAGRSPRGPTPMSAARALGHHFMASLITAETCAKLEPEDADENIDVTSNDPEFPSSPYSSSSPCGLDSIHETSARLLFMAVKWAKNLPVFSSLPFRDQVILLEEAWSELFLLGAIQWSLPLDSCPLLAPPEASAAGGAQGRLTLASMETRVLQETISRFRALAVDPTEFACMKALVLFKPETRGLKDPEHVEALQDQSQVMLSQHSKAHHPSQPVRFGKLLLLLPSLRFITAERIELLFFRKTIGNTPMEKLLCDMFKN
smiles,measurement,value
"COc1cc2nc(CN3CC=C(c4ccccc4)CC3)nc(O)c2cc1OC [PR3, Photoregulin3]",Kd,~67 µM
